Assays:
Format in all cases: in vivo
[1] = Masking of the bitterness of a mixture of bitter amino acids, panel of experts (n=13), randomized duo-test with nose clip; details: 100 ppm sample; for Reduction of bitterness in % compared to the mixture of amino acids: negative = less bitter, positive = more bitter; for Bitter taste amino acid mixture + sample: scale 0 [not bitter] to 10 [extremely bitter], n=13
Procedure: The masking effect of hydroxybenzoic acid amides (compounds 1-4) to be preferably used according to the invention as well as a comparative substance (compound 5) on a mixture of bitter amino acids (2 g/l L-Isoleucine; 3.5 g/l L-Leucine; 1 g/l L-Phenylalanine; 0.7 g/l L-Tryptophan in water) was evaluated by an panel of experts (n=13) (Evaluation 0 [not bitter] up to 10 [extremely bitter]). The tasting was performed with a nose clip, to exclude olfactory influences, and in a randomized duo-test. The bitterness of the mixture of amino acids was evaluated by the panel by 4.98±0,31 on a scale from 0 to 10.

[2] = Masking of the bitter taste of peptides, panel of experts (n=15), randomized duo-tests: Glu-Leu-Leu (comparative example); details: for Reduction of bitterness (%): Glu-Leu-Leu 0.2% (w/v) (comparative peptide), 100 ppm compound, negative = less bitter; for Bitter taste peptide solution + 100 ppm compound: Glu-Leu-Leu 0.2% (w/v) in water (comparative peptide), scale 0 to 10
Procedure: (§1) The masking effect of 2,4-Dihydroxy-N-[(4-hydroxy-3-methoxy-phenyl)methyl]benzamide (compound 1) and N-[(4-hydroxy-3-methoxy-phenyl)methyl]-2,4-dimethoxy-benzamide (compound 5) on the bitter taste of peptides was examined in a panel of experts (n=15) in randomized duo-tests. Therefore, solutions of bitter peptides in water with or without the addition of the exemplary substances were tasted and the perceived bitter taste was evaluated on a scale from 0 (not bitter) to 10 (extremely bitter).

[3] = Masking of the bitter taste of peptides; details: 100 ppm; compound 1: plurality of peptides, except Leu-Trp and Glu-Leu-Leu
Procedure: as §1

[4] = Masking of the bitter taste of peptides, panel of experts (n=15), randomized duo-tests: Trp-Trp-Trp; details: for Bitter taste peptide solution + 100 ppm compound: Trp-Trp-Trp 0.01% (w/v) in water, scale 0 to 10; for Reduction of bitterness (%): Trp-Trp-Trp 0.01% (w/v), 100 ppm compound, negative = less bitter
Procedure: as §1

[5] = Masking of the bitter taste of peptides, panel of experts (n=15), randomized duo-tests: Tyr-Pro-Phe-Pro; details: for Bitter taste peptide solution + 100 ppm compound: Tyr-Pro-Phe-Pro 0.1% (w/v) in water, scale 0 to 10; for Reduction of bitterness (%): Tyr-Pro-Phe-Pro 0.1% (w/v), 100 ppm compound, negative = less bitter
Procedure: as §1

[6] = Masking of the bitter taste of peptides, panel of experts (n=15), randomized duo-tests: Arg-Pro; details: for Bitter taste peptide solution + 100 ppm compound: Arg-Pro 0.1% (w/v) in water, scale 0 (not bitter) to 10 (extremely bitter); for Reduction of bitterness (%): Arg-Pro 0.1% (w/v), 100 ppm compound, negative = less bitter
Procedure: as §1

[7] = Masking of the bitter taste of peptides, panel of experts (n=15), randomized duo-tests: Leu-Trp (comparative example); details: for Reduction of bitterness (%): Leu-Trp 0.2% (w/v) (comparative peptide), 100 ppm compound, negative = less bitter; for Bitter taste peptide solution + 100 ppm compound: Leu-Trp 0.2% (w/v) in water (comparative peptide), scale 0 to 10
Procedure: as §1

[8] = Masking of the bitter taste of whey protein hydrolysate solution, panel of experts (n=8), randomized duo-tests; details: base 3% (w/v) whey protein hydrolysate in water; 100 ppm compound 1; aroma 1.6% (w/v) in the combination
Procedure: The bitter masking effect of 2,4-dihydroxy-N-[(4-hydroxy-3-methoxy-phenyl)methyl]benzamide (compound 1) on the bitter taste of whey protein hydrolysate was tested in a panel of experts [n=8] for a solution of 3% (w/v) of a commercially available whey protein hydrolysate (BioZate 3 of the company Davisco) in randomized duo-tests. The perceived bitter taste was evaluated on a scale from 0 [not bitter] to 10 [extremely bitter]. For comparison, a combination of compound 1 with a usual bitter masking aroma was tested, to examine possible additive effects.

Compound: COc1cc(Cn2c(=O)oc3cc(O)cc(O)c3c2=O)ccc1O [compound 2, 5,7-Dihydroxy-3-[(4-hydroxy-3-methoxy-phenyl)methyl]-1,3-benzoxazin-2,4-dione]
- Reduction of bitterness in % compared to the mixture of amino acids [1]: −30.3%
- Bitter taste amino acid mixture + sample [1]: 3.20

Compound: COc1cc(CNC(=O)c2ccc(O)cc2)ccc1O [compound 3, 4-Hydroxy-N-[(4-hydroxy-3-methoxy-phenyl)methyl]benzamide]
- Reduction of bitterness in % compared to the mixture of amino acids [1]: −14.1%
- Bitter taste amino acid mixture + sample [1]: 4.11

Compound: COc1cc(CNC(=O)c2ccccc2O)ccc1O [compound 4, 2-Hydroxy-N-[(4-hydroxy-3-methoxy-phenyl)methyl]benzamide]
- Reduction of bitterness in % compared to the mixture of amino acids [1]: −7.7%
- Bitter taste amino acid mixture + sample [1]: 4.74

Compound: COc1ccc(C(=O)NCc2ccc(O)c(OC)c2)c(OC)c1 [compound 5, N-[(4-hydroxy-3-methoxy-phenyl)methyl]-2,4-dimethoxy-benzamide, reference compound]
- Reduction of bitterness (%) [2]: 5.66%
- Bitter taste peptide solution + 100 ppm compound [2]: 5.6
- Effect on the bitterness of the peptides (in words) [3]: not able to achieve a reduction of the bitterness
- Reduction of bitterness in % compared to the mixture of amino acids [1]: 22.8%
- Bitter taste amino acid mixture + sample [1]: 6.86
- Bitter taste peptide solution + 100 ppm compound [4]: 6.40
- Reduction of bitterness (%) [4]: −1.08%
- Bitter taste peptide solution + 100 ppm compound [5]: 4.68
- Reduction of bitterness (%) [5]: 4.46%
- Bitter taste peptide solution + 100 ppm compound [6]: 2.05
- Reduction of bitterness (%) [6]: 10.81%
- Reduction of bitterness (%) [7]: 4.41%
- Bitter taste peptide solution + 100 ppm compound [7]: 7.1

Compound: COc1cc(CNC(=O)c2ccc(O)cc2O)ccc1O [compound 1, 2,4-Dihydroxy-N-[(4-hydroxy-3-methoxy-phenyl)methyl]benzamide]
- Reduction of bitterness (%) [2]: −3.77%
- Bitter taste peptide solution + 100 ppm compound [2]: 5.1
- Effect on the bitterness of the peptides (in words) [3]: clear reduction of the bitterness
- Reduction of bitterness in % compared to the mixture of amino acids [1]: −25.9%
- Bitter taste amino acid mixture + sample [1]: 3.90
- Bitter taste peptide solution + 100 ppm compound [4]: 5.35
- Reduction of bitterness (%) [4]: −17.4%
- Bitter taste peptide solution + 100 ppm compound [5]: 3.43
- Reduction of bitterness (%) [5]: −23.3%
- Reduction of the bitter taste [%] [8]: −24.5%
- Bitter taste peptide solution + 100 ppm compound [6]: 1.47
- Reduction of bitterness (%) [6]: −20.9%
- Reduction of bitterness (%) [7]: −4%
- Bitter taste peptide solution + 100 ppm compound [7]: 6.5

From patent US10736829B2, “Use of certain hydroxybenzoic acid amides for masking unpleasant taste impressions” (SYMRISE AG, priority 2015, dated 2020)
